Source: patent publication US10919841B2, “Monoamine reuptake inhibitors” (Research Triangle Institute, priority 2009, dated 2021)
“Also recorded” adds a separate entry of the source. Where two headings read alike, the source gives them in different places.

Experiments:
serotonin transporter = serotonin transporter (Rattus norvegicus, UniProt P31652); assay: 5-HT releasing/substrate activity using rat brain synaptosomes
(h)DAT [1] = target: T1, (h)DAT (Homo sapiens, UniProt Q01959); assay: competition binding with [125I]RTI-55 at (h)DAT stably expressed in HEK293 cells; conditions: mean ± standard error of three independent experiments
T1 construct: expressed in transfected cells

(h)NET [2] = target: T2, (h)NET (Homo sapiens, UniProt P23975); assay: competition binding with [125I]RTI-55 at (h)NET stably expressed in HEK293 cells; conditions: read-out: Binding, Ki NET; mean ± standard error of three independent experiments
(h)NET [3] = target: T2, (h)NET; assay: block of [3H]norepinephrine reuptake in HEK-(h)NET cells; conditions: for times better as NE uptake inhibitors than bupropion: relative to bupropion
rats [4] = assay: cocaine discrimination (2-lever operant), i.p. administration; conditions: for responders at 5 mg/kg / responders at 10 mg/kg / responders at 25 mg/kg / ED50 / responders at 50 mg/kg / responders at 100 mg/kg: Rattus norvegicus, ip; for responders at 5 mg/kg / responders at 10 mg/kg / responders at 25 mg/kg / responders at 50 mg/kg / responders at 100 mg/kg: read-out: % cocaine lever responding; for ED50: read-out: Full Generalization ED50
(h)SERT [5] = target: T3, (h)SERT (Homo sapiens, UniProt P31645); conditions: read-out: Binding, Ki SERT
T3 construct: expressed in transfected cells; host or cells: HEK293

mice [6] = assay: locomotor activity, 1-h observation protocol; format: in vivo; conditions: for Emax / ED50: Mus musculus; for Emax: 0.5 h, read-out: Locomotor Activity 1-Hour % Peak Cocaine; for ED50 / Locomotor Activity 1-Hour ED50: dose to produce 50% of the compound's maximal effect, 1-h
(h)SERT [7] = target: T3, (h)SERT; assay: block of [3H]serotonin reuptake in HEK-(h)SERT cells; format: cell-based
(h)DAT [8] = target: T1, (h)DAT; assay: block of [3H]dopamine reuptake in HEK-(h)DAT cells; format: cell-based
mice [9] = assay: locomotor activity, 8-h time course protocol; format: in vivo; conditions: for locomotor stimulant activity across the 1-h and 8-h protocols, in words: 1-h and 8-h tests compared; for Emax / ED50: Mus musculus; for Emax: read-out: Locomotor Activity 8-Hour % Peak Cocaine, percent of cocaine's maximal effect, 30 min period of maximum stimulation; for ED50: read-out: Locomotor Activity 8-Hour ED50; for Locomotor Activity 8-Hour Time, min Period, length: duration of locomotor activity; for Locomotor Activity 8-Hour Time, min Period, max: time period of maximum effect
rats [10] = assay: cocaine discrimination time-course study, oral administration; conditions: for ED50: Rattus norvegicus, po, 0.75 h; for generalization to cocaine: p.o.
[11] = read-out: IC50 for NE uptake inhibition, [3H]NE
[12] = mean ± standard error of three independent experiments
[13] = mean ± standard error of three independent experiments, read-out: Uptake, IC50 [3H]DA
[14] = dose to produce 50% of the compound's maximal effect, 8-h
[15] = read-out: Uptake, IC50 [3H]5-HT
[16] = [3H]DA, read-out: IC50 for DA uptake inhibition

Sequence of serotonin transporter (P31652 whole entry): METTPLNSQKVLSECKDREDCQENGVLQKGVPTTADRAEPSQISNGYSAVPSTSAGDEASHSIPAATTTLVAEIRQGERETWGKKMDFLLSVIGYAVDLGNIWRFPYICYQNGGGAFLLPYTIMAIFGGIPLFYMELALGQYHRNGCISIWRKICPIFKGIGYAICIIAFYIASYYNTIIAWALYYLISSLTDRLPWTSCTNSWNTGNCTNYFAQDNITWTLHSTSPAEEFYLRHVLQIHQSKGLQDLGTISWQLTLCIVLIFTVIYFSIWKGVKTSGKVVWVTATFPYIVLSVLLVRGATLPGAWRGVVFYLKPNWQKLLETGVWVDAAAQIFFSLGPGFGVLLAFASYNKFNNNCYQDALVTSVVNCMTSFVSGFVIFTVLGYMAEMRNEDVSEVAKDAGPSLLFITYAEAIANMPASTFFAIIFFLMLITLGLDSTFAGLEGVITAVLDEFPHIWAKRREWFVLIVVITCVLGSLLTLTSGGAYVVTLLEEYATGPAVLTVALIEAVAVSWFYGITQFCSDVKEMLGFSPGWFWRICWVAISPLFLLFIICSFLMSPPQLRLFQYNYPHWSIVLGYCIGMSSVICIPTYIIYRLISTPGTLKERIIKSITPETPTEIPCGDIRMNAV
T2 sequence (P23975 whole entry): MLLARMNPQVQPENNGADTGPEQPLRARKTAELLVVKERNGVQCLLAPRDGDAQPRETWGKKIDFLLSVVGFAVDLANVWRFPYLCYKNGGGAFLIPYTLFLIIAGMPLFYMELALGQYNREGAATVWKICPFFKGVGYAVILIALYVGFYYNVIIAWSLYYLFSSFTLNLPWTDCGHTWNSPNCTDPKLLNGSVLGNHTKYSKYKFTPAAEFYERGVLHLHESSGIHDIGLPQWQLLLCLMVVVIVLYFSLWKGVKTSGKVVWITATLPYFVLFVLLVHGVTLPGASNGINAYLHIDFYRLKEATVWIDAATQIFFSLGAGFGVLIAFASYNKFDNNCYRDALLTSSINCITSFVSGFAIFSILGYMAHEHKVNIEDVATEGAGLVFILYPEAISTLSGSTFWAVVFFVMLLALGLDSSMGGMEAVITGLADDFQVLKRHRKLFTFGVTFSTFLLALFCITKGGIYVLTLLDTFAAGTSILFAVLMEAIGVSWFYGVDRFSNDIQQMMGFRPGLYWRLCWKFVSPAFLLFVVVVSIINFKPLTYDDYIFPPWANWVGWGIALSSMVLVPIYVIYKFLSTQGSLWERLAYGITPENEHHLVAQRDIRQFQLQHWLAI
T1 sequence (Q01959 whole entry): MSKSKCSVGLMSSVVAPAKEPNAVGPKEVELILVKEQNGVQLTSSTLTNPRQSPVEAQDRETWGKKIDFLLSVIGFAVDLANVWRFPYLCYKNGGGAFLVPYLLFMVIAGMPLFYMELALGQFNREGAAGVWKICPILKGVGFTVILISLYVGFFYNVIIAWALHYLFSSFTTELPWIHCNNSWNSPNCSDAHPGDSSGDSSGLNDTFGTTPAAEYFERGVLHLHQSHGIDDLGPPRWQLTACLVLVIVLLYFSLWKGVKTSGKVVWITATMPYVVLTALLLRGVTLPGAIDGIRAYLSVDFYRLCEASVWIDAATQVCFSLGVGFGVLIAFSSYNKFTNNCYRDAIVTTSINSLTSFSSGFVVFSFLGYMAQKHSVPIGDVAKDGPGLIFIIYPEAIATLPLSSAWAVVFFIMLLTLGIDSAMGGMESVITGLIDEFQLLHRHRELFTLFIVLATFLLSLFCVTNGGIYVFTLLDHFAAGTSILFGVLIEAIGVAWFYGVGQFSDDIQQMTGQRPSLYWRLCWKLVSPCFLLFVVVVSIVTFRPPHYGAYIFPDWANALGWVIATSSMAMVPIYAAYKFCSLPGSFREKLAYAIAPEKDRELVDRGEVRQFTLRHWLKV
T3 sequence (P31645 whole entry): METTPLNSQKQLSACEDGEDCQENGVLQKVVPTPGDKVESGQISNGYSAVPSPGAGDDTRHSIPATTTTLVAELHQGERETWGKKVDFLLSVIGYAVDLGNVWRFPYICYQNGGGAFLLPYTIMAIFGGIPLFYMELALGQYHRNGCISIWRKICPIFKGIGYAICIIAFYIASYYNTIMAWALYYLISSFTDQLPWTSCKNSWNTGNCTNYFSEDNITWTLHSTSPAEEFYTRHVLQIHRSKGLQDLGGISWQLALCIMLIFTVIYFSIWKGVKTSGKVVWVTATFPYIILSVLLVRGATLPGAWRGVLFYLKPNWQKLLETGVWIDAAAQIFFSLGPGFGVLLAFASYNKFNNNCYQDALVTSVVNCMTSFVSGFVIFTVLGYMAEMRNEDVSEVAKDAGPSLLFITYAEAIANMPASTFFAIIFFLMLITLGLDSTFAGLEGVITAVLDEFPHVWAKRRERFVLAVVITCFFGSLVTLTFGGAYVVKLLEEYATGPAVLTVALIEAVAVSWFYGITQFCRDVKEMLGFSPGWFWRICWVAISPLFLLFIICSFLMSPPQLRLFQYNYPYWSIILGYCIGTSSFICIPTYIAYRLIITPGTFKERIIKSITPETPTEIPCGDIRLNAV

`CC(NC1CC1)C(=O)c1cccc(Br)c1` (centres unmarked) showed an EC50 (serotonin transporter) of 383 ± 56 nM.

`Cc1cccc(C(=O)C(C)NC2CC2)c1` (centres unmarked) gave an EC50 (serotonin transporter) of 890 ± 63 nM.

Molecule `COc1cccc(C(=O)C(C)NC2CC2)c1` (centres unmarked) has an EC50 (serotonin transporter) of 676 ± 197 nM.

`CC(NC1CC1)C(=O)c1ccc(Cl)cc1` (centres unmarked) showed an EC50 (serotonin transporter) of 2700 ± 314 nM.

Work on `Cc1ccc(C(=O)C(C)NC2CC2)cc1` (centres unmarked) yielded an EC50 (serotonin transporter) of 707 ± 69 nM.

Work on `CC(NC1CC1)C(=O)c1ccc(Cl)c(Cl)c1` (centres unmarked) yielded an EC50 (serotonin transporter) of 148 ± 35 nM.

`Cc1ccc(C(=O)C(C)NC2CC2)cc1Cl` (centres unmarked) gave an EC50 (serotonin transporter) of 139 ± 30 nM.

Molecule `CCC(NC(C)(C)C)C(=O)c1ccc(Cl)c(Cl)c1` (centres unmarked) [Compound 2aa, 2-(tert-Butylamino)-3′,4′-dichlorobutyrophenone] has a Ki ((h)DAT [1]) of 278 nM, a Ki ((h)NET [2]) of 2240 nM and an IC50 ((h)NET [3]; [11]) of 0.135 µM. The “times better as NE uptake inhibitors than bupropion” value ((h)NET [3]) was 10 times, the responders at 5 mg/kg (rats [4]) was 1% and the responders at 10 mg/kg (rats [4]) was 10%. The responders at 25 mg/kg (rats [4]) was 10%, the ED50 (rats [4]) was 15 mg/kg and the Ki ((h)SERT [5]; [12]) was 860 nM. The Emax (mice [6]) was 41%, the ED50 (mice [6]) was 50.3 mg/kg and the IC50 ((h)SERT [7]; mean ± standard error of three independent experiments, read-out: Uptake, IC50 [3H]5-HT) was 0.79 µM. For the same molecule, the “DA uptake inhibition, in words” value ((h)DAT [8]) was “slightly lower IC50 values than 2j”, the IC50 ((h)DAT [8]; [13]) was 0.175 µM and the “locomotor stimulant activity across the 1-h and 8-h protocols, in words” value (mice [9]) was “weak stimulants in both tests; also recorded: moderate activity in the 1-h test with increased activity in the time-course study”. For the same molecule, the Emax (mice [9]) was 84%, the ED50 (mice [9]; [14]) was 42.2 mg/kg and the “Locomotor Activity 8-Hour Time, min Period, length” value (mice [9]) was 60 min. For the same molecule, the “Locomotor Activity 8-Hour Time, min Period, max” value (mice [9]) was 0 to 30 min.

`CCCC(NC(C)(C)C)C(=O)c1ccc(Cl)c(Cl)c1` (centres unmarked) [Compound 2bb, 2-(tert-Butylamino)-3′,4′-dichloropentanophenone] gave a Ki ((h)DAT [1]) of 43.7 nM, a Ki ((h)NET [2]) of 520 nM and an ED50 (rats [10]) of 17.3 mg/kg. The IC50 ((h)NET [3]; [11]) was 0.043 µM, the “times better as NE uptake inhibitors than bupropion” value ((h)NET [3]) was 34 times and the responders at 5 mg/kg (rats [4]) was 1%. The responders at 10 mg/kg (rats [4]) was 17%, the responders at 25 mg/kg (rats [4]) was 10% and the ED50 (rats [4]) was 6.95 mg/kg. The Ki ((h)SERT [5]) was 842 nM, the Emax (mice [6]) was 49% and the ED50 (mice [6]) was 18.1 mg/kg. The IC50 ((h)SERT [7]; [15]) was 1.58 µM, the “DA uptake inhibition, in words” value ((h)DAT [8]) was “slightly lower IC50 values than 2j” and the IC50 ((h)DAT [8]; [13]) was 0.084 µM. For the same molecule, the “locomotor stimulant activity across the 1-h and 8-h protocols, in words” value (mice [9]) was “moderate activity in the 1-h test with increased activity in the time-course study”, the Emax (mice [9]) was 100% and the ED50 (mice [9]; [14]) was 35 mg/kg. For the same molecule, the “Locomotor Activity 8-Hour Time, min Period, length” value (mice [9]) was 470 min and the “Locomotor Activity 8-Hour Time, min Period, max” value (mice [9]) was 0 to 30 min.

Work on `CC(C(=O)c1cccc(Cl)c1)N1CCCCC1` (centres unmarked) [Compound 2ff, 2-Piperidino-3′-chloropropiophenone] yielded a Ki ((h)DAT [1]) of 1150 nM, a Ki ((h)NET [2]) of 4760 nM and an IC50 ((h)NET [3]; read-out: Uptake, IC50 [3H]NE, mean ± standard error of three independent experiments) of 4.8 µM. It also gave a responders at 10 mg/kg (rats [4]) of 6%, a responders at 25 mg/kg (rats [4]) of 17% and a responders at 50 mg/kg (rats [4]) of 33%. The responders at 100 mg/kg (rats [4]) was 34%, the Ki ((h)SERT [5]) was 5480 nM and the “Locomotor Activity 1-Hour ED50” value (mice [6]) was “NE^f”. The IC50 ((h)SERT [7]; [15]) was 0.97 µM, the IC50 ((h)DAT [8]; [16]) was 1.03 µM and the “locomotor stimulant activity across the 1-h and 8-h protocols, in words” value (mice [9]) was “inactive in the 1-h test but showed weak stimulant activity in the 8-h protocol”. The Emax (mice [9]) was 45%, the ED50 (mice [9]; [14]) was 15 mg/kg and the “Locomotor Activity 8-Hour Time, min Period, length” value (mice [9]) was 470 min. For the same molecule, the “onset and duration of locomotor activity, in words” value (mice [9]; mouse, in vivo) was “very slow onset of stimulatory activity”.

With `CC(C)(C)NC(CCC1CCCCC1)C(=O)c1cccc(Cl)c1` (centres unmarked) [Compound 2u, 2-(N-tert-Butylamino)-3′-chlorophenyl-4-cyclohexylbutanophenone] the Ki ((h)DAT [1]) was 1700 nM, the Ki ((h)NET [2]) was 3800 nM and the IC50 ((h)NET [3]; read-out: Uptake, IC50 [3H]NE, bound given in μM) was over 10 µM. For the same molecule, the “% cocaine lever responding” value (rats [4]; rats, IP, dose 5 mg/kg) was 0%, the “% cocaine lever responding” value (rats [4]; rats, IP, dose 10 mg/kg) was 0% and the “% cocaine lever responding” value (rats [4]; rats, IP, dose 25 mg/kg) was 70%. The “Comments (response rate)” value (rats [4]; rats, IP, response rate relative to vehicle control) was “B^b”, the Ki ((h)SERT [5]; [12]) was 6200 nM and the “Locomotor Activity 1-Hour ED50” value (mice [6]) was “NE^f”. For the same molecule, the IC50 ((h)SERT [7]; bound given in μM, read-out: Uptake, IC50 [3H]5-HT) was over 10 µM, the IC50 ((h)DAT [8]; [16]) was over 10 µM and the IC50 ((h)DAT [8]; bound given in μM, read-out: Uptake, IC50 [3H]DA) was over 10 µM. For the same molecule, the “locomotor stimulant activity across the 1-h and 8-h protocols, in words” value (mice [9]) was “inactive in the 1-h test but showed weak stimulant activity in the 8-h protocol”, the “Locomotor Activity 8-Hour ED50” value (mice [9]; [14]) was 15.3 mg/kg and the “Locomotor Activity 8-Hour Time, min Period, length” value (mice [9]) was 60 to 160 min. The “Locomotor Activity 8-Hour % Peak Cocaine” value (mice [9]; percent of cocaine's maximal effect, 30 min period of maximum stimulation) was 47% and the “Locomotor Activity 8-Hour Time, min Period, max” value (mice [9]) was 60 to 90 min.

With `CC(NC1CC1)C(=O)c1cccc(Cl)c1` (centres unmarked) [Compound 2x, 2-(N-Cyclopropylamino)-3′-chloropropiophenone] the Ki ((h)DAT [1]) was 1150 nM, the Ki ((h)NET [2]) was 4000 nM and the ED50 (rats [10]) was 13.3 mg/kg. For the same molecule, the generalization to cocaine (rats [10]; 45 min, 10 mg/kg) was “partial generalization”, the generalization to cocaine (rats [10]; 45 min, 25 mg/kg) was “partial generalization” and the generalization to cocaine (rats [10]; 90 min, 25 mg/kg) was “full generalization”. The generalization to cocaine (rats [10]; 180 min, 25 mg/kg) was “full generalization”, the IC50 ((h)NET [3]; [11]) was 2.15 µM and the responders at 5 mg/kg (rats [4]) was 6%. The responders at 10 mg/kg (rats [4]) was 67%, the responders at 25 mg/kg (rats [4]) was 34% and the responders at 50 mg/kg (rats [4]) was 17%. The responders at 100 mg/kg (rats [4]) was 17%, the “cocaine-appropriate responding (partial generalization)” value (rats [4]; i.p., 5 mg/kg) was 67% and the cocaine-appropriate responding (rats [4]; i.p., 10 mg/kg) was 67%. The “response rate, in words” value (rats [4]; i.p., dose range given in the value) was “affected response rate at 25-100 mg/kg”, the Ki ((h)SERT [5]) was 3420 nM and the EC50 (serotonin transporter) was 283 nM. For the same molecule, the Emax (mice [6]) was 94%, the ED50 (mice [6]) was 14.7 mg/kg and the IC50 ((h)SERT [7]; read-out: IC50 for 5HT uptake inhibition) was 3.18 µM. For the same molecule, the IC50 ((h)DAT [8]; [16]) was 0.265 µM, the “times more potent than bupropion as DA uptake inhibitor” value ((h)DAT [8]; relative to bupropion) was 3.6 times and the “locomotor stimulant activity across the 1-h and 8-h protocols, in words” value (mice [9]) was “strong stimulants in both studies”. The Emax (mice [9]) was 94%, the ED50 (mice [9]; [14]) was 14.7 mg/kg and the “Locomotor Activity 8-Hour Time, min Period, length” value (mice [9]) was 350 min. The “Locomotor Activity 8-Hour Time, min Period, max” value (mice [9]) was 0 to 30 min.
